Assays:
[1] = target: T1, human β2 adrenergic receptor (Homo sapiens, UniProt P07550); assay: Radioligand binding assay (Test A); conditions: for Ki: [3H]dihydroalprenolol displacement, HEK-293 membranes, results expressed as pKi; for Selectivity β2/β1 (binding): ratio Ki(β1)/Ki(β2)
T1 construct: expressed in transfected cells; membrane preparation
Protocol: HEK-293 derived cell lines stably expressing cloned human β1 or β2 adrenergic receptors, respectively, were grown to near confluency in DMEM with 10% dialyzed FBS in the presence of 500 μg/mL Geneticin. The cell monolayer was lifted with Versene 1:5,000 (0.2 g/L EDTA in PBS) using a cell scraper. Cells were pelleted by centrifugation at 1,000 rpm, and cell pellets were either stored frozen at −80° C. or membranes were prepared immediately. For preparation, cell pellets were resuspended in lysis buffer (10 mM Tris/HCL pH 7.4 @ 4° C., one tablet of “Complete Protease Inhibitor Cocktail Tablets with 2 mM EDTA” per 50 mL buffer (Roche cat.# 1697498, Roche Molecular Biochemicals, Indianapolis, Ind.)) and homogenized using a tight-fitting Dounce glass homogenizer (20 strokes) on ice. The homogenate was centrifuged at 20,000×g, the pellet was washed once with lysis buffer by resuspension and centrifugation as above. The final pellet was resuspended in membrane buffer (75 mM Tris/HCl pH 7.4, […], 1 mM EDTA @ 25° C.). Protein concentration of the membrane suspension was determined by the method of Bradford (Bradford M M., Analytical Biochemistry, 1976, 72, 248-54). Membranes were stored frozen in aliquots at −80° C.
Binding assays were performed in 96-well microtiter plates in a total assay volume of 100 μL with 5 μg membrane protein for membranes containing the human β2 adrenergic receptor, or 2.5 μg membrane protein for membranes containing the human β1 adrenergic receptor in assay buffer (75 mM Tris/HCl pH 7.4 @ 25° C., 12.5 mM MgCl2, 1 mM EDTA, 0.2% BSA). […] Non-specific binding was determined in the presence of 10 μM unlabeled alprenolol. […] Filter plates were washed three times with filtration buffer (75 mM Tris/HCl pH 7.4 @ 4° C., 12.5 mM MgCl2, 1 mM EDTA) to remove unbound radioactivity. Plates were dried, 50 μL Microscint-20 liquid scintillation fluid (Packard BioScience Co., Meriden, Conn.) was added and plates were counted in a Packard Topcount liquid scintillation counter (Packard BioScience Co., Meriden, Conn.). Binding data were analyzed by nonlinear regression analysis with the GraphPad Prism Software package (GraphPad Software, Inc., San Diego, Calif.) using the 3-parameter model for one-site competition. The curve minimum was fixed to the value for nonspecific binding, as determined in the presence of 10 μM alprenolol. Ki values for compounds were calculated from observed IC50 values and the Kd value of the radioligand using the Cheng-Prusoff equation (Cheng Y, and Prusoff W H., Biochemical Pharmacology, 1973, 22, 23, 3099-108). The receptor subtype selectivity was calculated as the ratio of Ki(β1)/Ki(β2).
Binding results are expressed as the negative decadic logarithm of the Ki values, pKi. […]

human β2-adrenoceptor = target: T2, human β2-adrenoceptor (Homo sapiens, UniProt P07550); assay: Whole-cell cAMP Flashplate assay, recombinant cell line (Test B); type: cell-based; conditions: for EC50: HEK-293 cells expressing cloned human β2-adrenoceptor, cAMP; for Selectivity β2/β1 (functional): ratio EC50(β1)/EC50(β2); for Selectivity β2/β3 (functional): ratio EC50(β3)/EC50(β2)
T2 construct: expressed in transfected cells
T2 sequence (P07550 whole entry): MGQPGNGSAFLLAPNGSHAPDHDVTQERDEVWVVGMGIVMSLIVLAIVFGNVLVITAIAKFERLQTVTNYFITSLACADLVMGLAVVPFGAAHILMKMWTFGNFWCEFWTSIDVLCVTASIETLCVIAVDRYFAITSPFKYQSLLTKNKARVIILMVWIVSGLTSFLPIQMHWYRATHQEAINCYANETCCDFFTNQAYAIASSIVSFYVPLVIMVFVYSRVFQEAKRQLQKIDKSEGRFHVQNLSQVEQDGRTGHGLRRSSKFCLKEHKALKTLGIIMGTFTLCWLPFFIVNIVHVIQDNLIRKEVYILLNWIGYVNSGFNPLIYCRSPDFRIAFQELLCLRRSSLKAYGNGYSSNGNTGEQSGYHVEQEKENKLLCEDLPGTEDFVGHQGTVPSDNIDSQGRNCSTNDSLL
Protocol: A HEK-293 cell line stably expressing cloned human β1 adrenergic receptor (clone H34.1) was grown to about 70%-90% confluency in medium consisting of DMEM supplemented with 10% FBS and 500 μg/mL Geneticin. A HEK-293 cell line stably expressing cloned human β2-adrenoceptor (clone H24.14) was grown in the same medium to full confluency. A CHO-K1 cell line stably expressing cloned human β3-adrenoceptor was grown to about 70%-90% confluency in Ham's F-12 medium supplemented with 10% FBS and with 800 μg/mL Geneticin added to every fifth passage. The day before the assay, cultures were switched to the same growth-media without antibiotics.
cAMP assays were performed in a radioimmunoassay format using the Flashplate Adenylyl Cyclase Activation Assay System with ^125I-cAMP (NEN SMP004, PerkinElmer Life Sciences Inc., Boston, Mass.), according to the manufacturers instructions.
On the day of the assay, cells were rinsed once with PBS, lifted with Versene 1:5,000 (0.2 g/L EDTA in PBS) and counted. Cells were pelleted by centrifugation at 1,000 rpm and resuspended in stimulation buffer prewarmed to 37° C. For cells expressing the β1-adrenoceptor, 10 nM ICI 118,551 were added to the stimulation buffer, and cells were incubated for 10 min at 37° C. Cells were used at final concentrations of 30,000, 40,000 and 70,000 cells/well for the β1-adrenoceptor-, the β2-adrenoceptor- and the β3-adrenoceptor expressing cells, respectively. Compounds were dissolved to a concentration of 10 mM in DMSO, then diluted to 1 mM in 50 mM Gly-HCl pH 3.0, and from there serially diluted into assay buffer (75 mM Tris/HCl pH 7.4 @ 25° C., 12.5 mM MgCl2, 1 mM EDTA, 0.2% BSA). Compounds were tested in the assay at 11 different concentrations, ranging from 10 μM to […]. Reactions were incubated for 10 min at 37° C. and stopped by addition of 100 μL ice-cold detection buffer. Plates were sealed, incubated over night at 4° C. and counted the next morning in a topcount scintillation counter (Packard BioScience Co., Meriden, Conn.). The amount of cAMP produced per mL of reaction was calculated based on the counts observed for the samples and cAMP standards, as described in the manufacturer's user manual. Data were analyzed by nonlinear regression analysis with the GraphPad Prism Software package (GraphPad Software, Inc., San Diego, Calif.) using the 3-parameter model for sigmoidal dose-response (Hill slope=1). Agonist potencies were expressed as pEC50 values. Functional β2/β1 selectivity was defined as the ratio EC50(β1)/EC50(β2), and correspondingly functional β2/β3 selectivity was defined as the ratio EC50(β3)/EC50(β2).

[2] = system: acetylcholine-induced bronchospasm; assay: Bronchoprotection against acetylcholine-induced bronchospasm in a guinea pig model (Test D); type: in vivo; conditions: inhalation
Protocol: Groups of 6 male guinea pigs (Duncan-Hartley (HsdPoc:DH) Harlan, Madison, Wis.) weighing between 250 and 350 g were individually identified by cage cards. Throughout the study animals were allowed access to food and water ad libitum.
Test compounds were administered via inhalation over 10 minutes in a whole-body exposure dosing chamber (R&S Molds, San Carlos, Calif.). The dosing chambers were arranged so that an aerosol was simultaneously delivered to 6 individual chambers from a central manifold. Following a 60 minute acclimation period and a 10 minute exposure to nebulized water for injection (WFI), guinea pigs were exposed to an aerosol of test compound or vehicle (WFI). These aerosols were generated from aqueous solutions using an LC Star Nebulizer Set (Model 22F51, PARI Respiratory Equipment, Inc. Midlothian, Va.) driven by a mixture of gases (CO2=5%, O2=21% and N2=74%) at a pressure of 22 psi. The gas flow through the nebulizer at this operating pressure was approximately 3 L/minute. The generated aerosols were driven into the chambers by positive pressure. No dilution air was used during the delivery of aerosolized solutions. During the 10 minute nebulization, approximately 1.8 mL of solution was nebulized. This was measured gravimetrically by comparing pre- and post-nebulization weights of the filled nebulizer.
The bronchoprotective effects of compounds administered via inhalation were evaluated using whole body plethysmography at 1.5, 24, 48 and 72 hours post-dose. Forty-five minutes prior to the start of the pulmonary evaluation, each guinea pig was anesthetized with an intramuscular injection of ketamine (43.75 mg/kg), xylazine (3.50 mg/kg) and acepromazine (1.05 mg/kg). After the surgical site was shaved and cleaned with 70% alcohol, a 2-5 cm midline incision of the ventral aspect of the neck was made. Then, the jugular vein was isolated and cannulated with a saline-filled polyethylene catheter (PE-50, Becton Dickinson, Sparks, Md.) to allow for intravenous infusions of a 0.1 mg/mL solution of acetylcholine (Ach), (Sigma-Aldrich, St. Louis, Mo.) in saline. The trachea was then dissected free and cannulated with a 14G teflon tube (#NE-014, Small Parts, Miami Lakes, Fla.). If required, anesthesia was maintained by additional intramuscular injections of the aforementioned anesthetic cocktail. The depth of anesthesia was monitored and adjusted if the animal responded to pinching of its paw or if the respiration rate was greater than 100 breaths/minute.
Once the cannulations were complete, the animal was placed into a plethysmograph (#PLY3114, Buxco Electronics, Inc., Sharon, Conn.) and an esophageal pressure cannula was inserted to measure pulmonary driving pressure (pressure). The teflon tracheal tube was attached to the opening of the plethysmograph to allow the guinea pig to breathe room air from outside the chamber. The chamber was then sealed.
Once it was determined that baseline values were within the range 0.3-0.9 mL/cm H2O for compliance and within the range 0.1-0.199 cm H2O/mL per second for resistance, the pulmonary evaluation was initiated. A Buxco pulmonary measurement computer program enabled the collection and derivation of pulmonary values. Starting this program initiated the experimental protocol and data collection. The changes in volume over time that occurred within the plethysmograph with each breath were measured via a Buxco pressure transducer. By […] this signal over time, a measurement of flow was calculated for each breath. This signal, together with the pulmonary driving pressure changes, which were collected using a Sensym pressure transducer (#TRD4100), was connected via a Buxco (MAX 2270) preamplifier to a data collection interface (#'s SFT3400 and SFT3813). All other pulmonary parameters were derived from these two inputs.
Baseline values were collected for 5 minutes, after which time the guinea pigs were challenged with Ach. […]

[3] = target: T1, human β2 adrenergic receptor; assay: Whole-cell cAMP Flashplate assay, lung epithelial cell line BEAS-2B endogenously expressing receptor (Test C); type: cell-based
Protocol: For the determination of agonist potencies and efficacies (intrinsic activities) in a cell line expressing endogenous levels of β2 adrenergic receptor, a human lung epithelial cell line (BEAS-2B) was used (ATCC CRL-9609, American Type Culture Collection, Manassas, Va.) (January B, et al., British Journal of Pharmacology, 1998, 123, 4, 701-11). Cells were grown to 75-90% confluency in complete, serum-free medium (LHC-9 MEDIUM containing Epinephrine and Retinoic Acid, cat #181-500, Biosource International, Camarillo, Calif.). The day before the assay, medium was switched to LHC-8 (No epinephrine or retinoic acid, cat #141-500, Biosource International, Camarillo, Calif.). […]
On the day of the assay, cells were rinsed with PBS, lifted by scraping with 5 mM EDTA in PBS, and counted. […]
Compounds were tested in the assay at 10 different concentrations, ranging from 10 μM to […]. Maximal response was determined in the presence of 10 μM Isoproterenol. […] Plates were sealed, incubated over night at 4° C. and counted the next morning in a topcount scintillation counter (Packard BioScience Co., Meriden, Conn.). The amount of cAMP produced per mL of reaction was calculated based on the counts observed for samples and cAMP standards, as described in the manufacturer's user manual. […]

T1 sequence (P07550 whole entry): as above

Row | SMILES | Ki [1] [nM] | Selectivity β2/β1 (binding) [1] | EC50 (human β2-adrenoceptor) [nM] | Selectivity β2/β1 (functional) (human β2-adrenoceptor) | Selectivity β2/β3 (functional) (human β2-adrenoceptor) | Activity at 1.5 hours post dose [2] | Activity at 72 hours post dose [2] | Activity at 72 hours post dose ([2]; listed as comparison compound) | EC50 ([3]; BEAS-2B endogenous cell line, cAMP) [nM] | Emax ([3]; BEAS-2B, Emax relative to 10 μM isoproterenol, read-out: % Efficacy) [%] | Activity at 72 hours post dose ([2]; listed as compound of the invention)
1 | O=c1ccc2c([C@@H](O)CNCCCCCCOCCc3ccccc3)ccc(O)c2[nH]1 [Comparison Compound, 8-hydroxy-5-[(R)-1-hydroxy-2-(6-phenethyloxy-hexylamino)ethyl]-1H-quinolin-2-one, reference compound] | 0.794 | 76 | 0.0501 | 54 | 370 | Yes | No | not active |  |  | 
2 | O=c1ccc2c([C@@H](O)CNCCCCCCNCCc3ccccc3)ccc(O)c2[nH]1 [Compound of the Invention, 8-hydroxy-5-[(R)-1-hydroxy-2-(6-phenethylamino-hexylamino)ethyl]-1H-quinolin-2-one] | 25.1 | 18 | 0.316 | 107 | 3900 | Yes | Yes |  | 3.16 | 68 | demonstrated bronchoprotection

Reference: patent US20080039495A1, “Diamine Beta2 Adrenergic Receptor Agonists” (priority 2004, published 2008)
